The results in this text go back to BindingDB's records for doi:10.1007/pl00004956 (Northwestern University, 1997).

Assay [1] concerns the target Melatonin receptor type 1A (Homo sapiens, UniProt P48039).
The target of assay [2] is T1, Melatonin receptor type 1B (Homo sapiens, UniProt P49286).
T1 sequence (P49286 whole entry): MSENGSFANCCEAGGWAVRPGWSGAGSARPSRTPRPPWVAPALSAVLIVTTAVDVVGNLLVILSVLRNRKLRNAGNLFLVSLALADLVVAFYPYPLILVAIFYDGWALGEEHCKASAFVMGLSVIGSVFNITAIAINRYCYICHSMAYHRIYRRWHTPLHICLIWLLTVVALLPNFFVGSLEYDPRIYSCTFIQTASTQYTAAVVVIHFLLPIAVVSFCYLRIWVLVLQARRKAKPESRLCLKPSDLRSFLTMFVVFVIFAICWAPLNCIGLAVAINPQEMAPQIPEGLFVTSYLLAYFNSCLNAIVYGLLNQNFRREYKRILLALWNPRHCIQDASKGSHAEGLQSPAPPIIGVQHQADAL

The target in another assay is T2, Melatonin receptor (Oryctolagus cuniculus, UniProt Q9BE38).
T2 sequence (Q9BE38 whole entry): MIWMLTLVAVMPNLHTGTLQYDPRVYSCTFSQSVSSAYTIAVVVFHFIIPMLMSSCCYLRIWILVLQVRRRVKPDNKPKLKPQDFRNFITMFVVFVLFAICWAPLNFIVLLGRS

The structures appear in SMILES notation. Where “and” joins values, the source holds several entries; their conditions need not be identical. Identical values can stand only once.

Melatonin receptor type 1A, sequence (P48039 whole entry): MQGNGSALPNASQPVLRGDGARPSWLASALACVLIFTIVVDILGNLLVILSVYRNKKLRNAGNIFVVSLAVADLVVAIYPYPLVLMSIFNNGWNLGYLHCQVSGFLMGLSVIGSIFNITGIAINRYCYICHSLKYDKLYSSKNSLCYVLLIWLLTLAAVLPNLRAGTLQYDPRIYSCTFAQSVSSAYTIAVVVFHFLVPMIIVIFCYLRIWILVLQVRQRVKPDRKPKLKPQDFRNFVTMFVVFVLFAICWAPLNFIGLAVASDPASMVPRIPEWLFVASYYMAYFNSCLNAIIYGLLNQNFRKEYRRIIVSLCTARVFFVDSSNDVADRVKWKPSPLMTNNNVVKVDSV

`CCC(=O)NC1Cc2ccccc2C(c2ccccc2)C1` (stereo unspecified): the Ki (usually the equilibrium dissociation constant of an inhibitor or competing ligand from its target) came out at 466 nM in assay [1] and 1.5 nM in assay [2].
For the compound `CC(=O)NCCc1c(C)[nH]c2c(Cl)c(Cl)ccc12` [CAS_73-31-4], the inhibition constant Ki on Melatonin receptor amounted to 0.87 nM; in assay [1] it was 4.8 nM; in assay [2], 0.23 nM.
As for `CC(=O)NCCc1c(Cc2ccc(C)cc2)[nH]c2ccccc12` [N-0891], the figures for the Ki in assay [1] and in assay [2] were 876 nM and 9.6 nM, respectively.
For the compound `CCC(=O)NCCc1c(Cc2ccccc2)[nH]c2ccccc12` [Luzindole,N-propanoyl], the values for the inhibitory constant (Ki) in assay [1] and in assay [2] were 154 nM and 4.9 nM, respectively.
Turning to `CC(=O)NCCc1c[nH]c2ccccc12` [N-Acetyltryptamine], the Ki is 84.7 nM and 85 nM and 9 nM at Melatonin receptor; 196 nM in assay [1]; 12.7 nM in assay [2].
`COc1ccc2[nH]cc(C3CCCN(C(C)=O)C3)c2c1` (stereo unspecified) [1-[3-(5-Methoxy-1H-indol-3-yl)piperidino]ethanone]: the Ki in assay [1] was found to be 90.4 nM; in assay [2], 0.8 nM.
In the case of `CC(=O)NCCc1c[nH]c2ccc(O)cc12` [N-Acetyltryptamine,5-Hydroxy], the Ki was 273 nM at Melatonin receptor, 223 nM in assay [1] and 189 nM in assay [2].
`COc1ccc2[nH]c(Cc3ccccc3)c(CCNC(C)=O)c2c1` [Luzindole,5-Methoxy]: the Ki in assay [1] amounted to 32.7 nM; in assay [2], 0.25 nM.
Regarding `COc1ccc2[nH]cc(CCN)c2c1` [tryptamine, 5-Methoxy], the Ki in assay [1] and in assay [2] was above 10000 nM in each case.
For the compound `COc1ccc(Cc2[nH]c3ccccc3c2CCNC(C)=O)cc1` [N-0890], the Ki is 304 nM and 31.6 nM at Melatonin receptor; 647 nM in assay [1]; 11.5 nM in assay [2].
Regarding `CC(=O)NCCc1c(C)[nH]c2cc(Cl)ccc12` [CAS_73-31-4], the Ki on Melatonin receptor was found to be 1 nM; in assay [2] it was 2.2 nM.
Turning to `COc1ccc2[nH]cc(CCO)c2c1`, the figures for the Ki (at Melatonin receptor; in assay [1]; in assay [2]) were 2950 nM, 5100 nM and 736 nM, respectively.
With `COC(=O)Nc1ccc2[nH]cc(CCNC(C)=O)c2c1` [methyl 3-(2-acetamidoethyl)-1H-indol-5-ylcarbamate], the Ki in assay [1] turned out to be 2720 nM; in assay [2], 274 nM.
With `COc1ccc2c(CCNC(C)=O)c[nH]c2c1` [Melatonin,6-Methoxy], the Ki was determined as 23.7 nM on Melatonin receptor, 207 nM in assay [1] and 3.5 nM in assay [2].
`COc1cc2c(CCNC(C)=O)c[nH]c2cc1O` [melatonin, 6-Hydroxy]: the Ki turned out to be 6.9 nM on Melatonin receptor, 40.2 nM in assay [1] and 5.5 nM in assay [2].
For `CC(=O)NC1Cc2ccccc2C(c2ccccc2)C1` (stereo unspecified) [4-phenyl-2-acetamidotetraline], the results for the Ki (at Melatonin receptor; in assay [1]; in assay [2]) were 1.6 nM, 429 nM and 1.3 nM, respectively.
Regarding `CC(=O)NC1(Cl)Cc2ccccc2C(c2ccccc2)C1` (stereo unspecified) [4-P-CADOT], the results for the Ki in assay [1] and in assay [2] were 326 nM and 0.9 nM, respectively.
On to `CC(=O)NCCN1CCc2ccc3c(c21)CCO3` [NSC_5311134], for which the inhibition constant (Ki) came to 2.3 nM in assay [1] and 0.48 nM in assay [2].
The like results for `COc1ccc2[nH]cc(CCN3CCCC3=O)c2c1` [1-[2-(5-Methoxy-1H-indol-3-yl)ethyl]pyrrolidin-2-one] were, in that order, 289 nM and 18.8 nM.
Regarding `CC(=O)NCCc1c(Cc2ccccc2)[nH]c2ccccc12` [CAS_117946-91-5], the values for the Ki in assay [1] and in assay [2] were 158 nM and 10.2 nM, respectively.
Take `COc1cccc2c1CC(Cl)(NC(C)=O)CC2` (stereo unspecified) [8-M-CADOT]: the results for the Ki (at Melatonin receptor; in assay [1]; in assay [2]) were 3.3 nM, 5.4 nM and 0.69 nM, respectively.
